Read-outs that look alike come from different tables or passages of the source. Where a SMILES comes first, the peptide text is derived from it. Bridges are numbered along the chain shown (N, C = ends). [ ]: non-standard residue; d: D form. The star is where a group is joined. hPhe(3-Cl-4-CF3) = N[C@@H](CCc1ccc(C(F)(F)F)c(Cl)c1)C(=O)O; NPrPhe(4-CF3) = CCCN[C@@H](Cc1ccc(C(F)(F)F)cc1)C(=O)O; NMeGly(cPent) = CN[C@H](C(=O)O)C1CCCC1; Pro(4,4-F2) = O=C(O)[C@@H]1CC(F)(F)CN1; NMeD = CN[C@@H](CC(=O)O)C(=O)O; NMeL = CN[C@@H](CC(C)C)C(=O)O; Morpholide = C1CN(*)CCO1; Ac4c = NC1(C(=O)O)CCC1; NEtG = CCNCC(=O)O; Sar = CNCC(=O)O
How the values were obtained:
[1] = target: GDP-bound HRAS wild-type protein (Homo sapiens, UniProt P01112); assay: Binding to HRAS by surface plasmon resonance (SPR), Single Cycle Kinetics; conditions: for HRAS/KRAS (ratio of KD value for HRAS to KD value for KRAS) / HRAS/KRAS (ratio of KD value with respect to HRAS to KD value with respect to KRAS): SPR, GDP-bound HRAS wild-type protein vs GDP-bound KRAS wild-type protein
Chain of GDP-bound HRAS wild-type protein (P01112 whole entry): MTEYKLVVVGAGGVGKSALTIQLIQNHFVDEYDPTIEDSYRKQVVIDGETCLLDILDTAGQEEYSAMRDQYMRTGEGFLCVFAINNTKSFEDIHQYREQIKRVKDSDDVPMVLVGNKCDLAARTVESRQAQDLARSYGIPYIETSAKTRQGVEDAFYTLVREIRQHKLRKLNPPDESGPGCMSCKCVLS

[2] = target: GDP-bound NRAS wild-type protein (Homo sapiens, UniProt P01111); assay: Binding to NRAS by surface plasmon resonance (SPR), Single Cycle Kinetics; conditions: for NRAS/KRAS (ratio of KD value for NRAS to KD value for KRAS) / NRAS/KRAS (ratio of KD value with respect to NRAS to KD value with respect to KRAS): SPR, GDP-bound NRAS wild-type protein vs GDP-bound KRAS wild-type protein
Chain of GDP-bound NRAS wild-type protein (P01111 whole entry): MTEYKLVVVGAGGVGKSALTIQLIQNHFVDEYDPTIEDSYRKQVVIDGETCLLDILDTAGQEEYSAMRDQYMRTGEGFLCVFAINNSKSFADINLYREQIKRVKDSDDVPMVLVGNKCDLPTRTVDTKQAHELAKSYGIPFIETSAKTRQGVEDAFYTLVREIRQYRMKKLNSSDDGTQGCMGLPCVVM

[3] = target: GDP-bound KRAS wild-type protein (Homo sapiens, UniProt P01116); assay: Binding to KRAS by surface plasmon resonance (SPR), Single Cycle Kinetics; conditions: GDP-bound KRAS wild-type protein, read-out: KRAS KD
Chain of GDP-bound KRAS wild-type protein (P01116 whole entry): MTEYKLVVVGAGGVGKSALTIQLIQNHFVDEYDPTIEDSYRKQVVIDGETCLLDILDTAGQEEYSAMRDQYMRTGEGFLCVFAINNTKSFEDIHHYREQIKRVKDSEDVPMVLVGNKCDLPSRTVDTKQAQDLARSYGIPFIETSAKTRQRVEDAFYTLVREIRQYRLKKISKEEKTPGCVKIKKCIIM

[4] = SPR Single Cycle Kinetics, 1:1 binding model

SMILES | HRAS/KRAS (ratio of KD value for HRAS to KD value for KRAS) [1] | NRAS/KRAS (ratio of KD value for NRAS to KD value for KRAS) [2] | Kd ([3]; SPR, Single Cycle Kinetics) [nM] | HRAS/KRAS (ratio of KD value with respect to GDP-bound HRAS wild-type protein to KD value with respect to KRAS) ([1]; SPR KD ratio HRAS/KRAS, class symbols) | NRAS/KRAS (ratio of KD value with respect to GDP-bound NRAS wild-type protein to KD value with respect to KRAS) ([2]; SPR KD ratio NRAS/KRAS, class symbols) | Kd [3, 4] [nM] | HRAS/KRAS (ratio of KD value with respect to HRAS to KD value with respect to KRAS) [1] | NRAS/KRAS (ratio of KD value with respect to NRAS to KD value with respect to KRAS) [2]
CCC[C@H]1C(=O)N[C@@H](C2CCCC2)C(=O)N(C)CC(=O)N(C)[C@H]2C/C=C\CCN(C2=O)[C@@H](Cc2ccc(C)cc2)C(=O)N(C)CC(=O)N[C@@H](CCc2cc(F)c(C(F)(F)F)c(F)c2)C(=O)N2C[C@H](OCC)C[C@H]2C(=O)NC2(CC(C)(C)C2)C(=O)N(C)[C@@H](CC(C)(C)C)C(=O)N(C)[C@H](C(=O)N(C)C)CC(=O)N1C [PP2989] | A (a compound having 10 or more and less than 20 is denoted as A) | AA (a compound having 20 or more is denoted as AA) | 0.087 |  |  |  |  | 
CC[C@H](C)[C@@H]1NC(=O)[C@@H]2CCC/C=C/c3ccc(cc3)C[C@@H](C(=O)N(C)CC(=O)N[C@@H](CCc3ccc(Cl)c(Cl)c3)C(=O)N3CCC[C@H]3C(=O)NC3(CC(C)(C)C3)C(=O)N(C)[C@@H](C3CCCC3)C(=O)N(C)[C@H](C(=O)N(C)CC)CC(=O)N2C)N2CC/C=C\C[C@@H](C2=O)N(C)C(=O)CN(C)C1=O [PP2601] |  |  |  | A (a compound having 10 or more and less than 20 is denoted as A) | A (a compound having 10 or more and less than 20 is denoted as A) | 0.2 |  | 
CCO[C@@H]1C[C@H]2C(=O)NC3(CCC3)C(=O)N(C)[C@@H](C3CCCCC3)C(=O)N(C)[C@H](C(=O)N(C)C)CC(=O)N(C)[C@@H](CC)C(=O)N[C@@H]([C@@H](C)CC)C(=O)N(C)CC(=O)N(C)[C@H]3C/C=C\CCN(C3=O)[C@@H](Cc3ccc(C(F)(F)F)cc3)C(=O)N(C)CC(=O)N[C@@H](CCc3cc(F)c(C(F)(F)F)c(F)c3)C(=O)N2C1 [PP1086, (2S,8S,12R,14S,20S,23S,27S,30S,36S,38Z)-20-cyclohexyl-8-[2-[3,5-difluoro-4-(trifluoromethyl)phenyl]ethyl]-12-ethoxy-27-ethyl-N,N,4,19,22,26,32,35-octamethyl-30-[(1S)-1-methylpropyl]-3,6,9,15,18,21,25,28,31,34,42-undecaoxo-2-[[4-(trifluoromethyl)phenyl]methyl]spiro[1,4,7,10,16,19,22,26,29,32,35-undecazatricyclo[34.5.1.0^10,14]dotetracont-38-ene-17,1′-cyclobutane]-23-carboxamide] | A (a compound having 10 or more and less than 20 is denoted as A) | AA (a compound having 20 or more is denoted as AA) | 0.13 |  |  |  |  | 
CCO[C@@H]1C[C@H]2C(=O)NC3(CC=CC3)C(=O)N(C)[C@@H](C3CCCC3)C(=O)N(C)[C@H](C(=O)N3CCOCC3)CC(=O)N(C)[C@@H](COC)C(=O)N[C@@H]([C@@H](C)CC)C(=O)N(C)CC(=O)N(C)[C@H]3CCCCCN(C3=O)[C@@H](Cc3ccc(C(F)(F)F)cc3)C(=O)N(C)CC(=O)N[C@@H](CCc3cc(F)c(C(F)(F)F)c(F)c3)C(=O)N2C1 [PP0842] | B (a compound having 3 or more and less than 10 is denoted as B) | B (a compound having 3 or more and less than 10 is denoted as B) | 0.6 |  |  |  |  | 
CC[C@H](C)[C@@H]1NC(=O)[C@H](CC(C)C)N(C)C(=O)C[C@@H](C(=O)N2CCC2)N(C)C(=O)[C@H](C2CCCC2)N(C)C(=O)C2(CCCC2)NC(=O)[C@@H]2CCCN2C(=O)[C@H](CCc2cc(F)c(C(F)(F)F)c(F)c2)NC(=O)CN(C)C(=O)[C@H](Cc2ccc(C(F)(F)F)cc2)N2CCCC[C@@H](C2=O)N(C)C(=O)CN(C)C1=O [PP0570] |  |  |  |  |  | 0.046 | B (a compound having 3 or more and less than 10 is denoted as B) | B (a compound having 3 or more and less than 10 is denoted as B)
CCCN1C(=O)CN(C)C(=O)CN(CC)C(=O)[C@H]([C@@H](C)CC)NC(=O)[C@H](CC(C)C)N(C)C(=O)C[C@@H](C(=O)N2CCOCC2)N(C)C(=O)[C@H](C2CCCC2)N(C)C(=O)C2(CCC2)NC(=O)[C@@H]2CC(F)(F)CN2C(=O)[C@H](CCc2ccc(C(F)(F)F)c(Cl)c2)NC(=O)CN(C)C(=O)[C@@H]1Cc1ccc(C(F)(F)F)cc1 [PP0400] ([NMeL]I[NEtG][Sar][NPrPhe(4-CF3)][Sar][hPhe(3-Cl-4-CF3)][Pro(4,4-F2)][Ac4c][NMeGly(cPent)][NMeD]-Morpholide; lactam N-11) | B (a compound having 3 or more and less than 10 is denoted as B) | B (a compound having 3 or more and less than 10 is denoted as B) |  |  |  | 0.17 |  | 
CC[C@H](C)[C@@H]1NC(=O)[C@H](CC(C)C)N(C)C(=O)C[C@@H](C(=O)N2CCOCC2)N(C)C(=O)[C@H](C2CCCC2)N(C)C(=O)C2(CCCC2)NC(=O)[C@@H]2CCCN2C(=O)[C@H](CCc2ccc(C(F)(F)F)c(Cl)c2)NC(=O)CN(C)C(=O)[C@H](Cc2ccc(C(F)(F)F)cc2)N2CC/C=C\C[C@@H](C2=O)N(C)C(=O)CN(C)C1=O [PP0463] |  |  |  |  |  | 0.54 | A (a compound having 10 or more and less than 20 is denoted as A) | A (a compound having 10 or more and less than 20 is denoted as A)

Source: patent US20240158446A1, “CYCLIC COMPOUND HAVING SELECTIVE INHIBITORY ACTION ON KRAS OVER HRAS AND NRAS” (CHUGAI SEIYAKU KABUSHIKI KAISHA, priority 2021, published 2024)
